Test results: the supplement of paper PMC10307832

Columns and labels:
Experiment in all cases: relative viability (nuclei count vs DMSO), 5 days (fraction); higher = more cells survive
[1] = tested on: HCC-44
In short: (§1)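 Lung cancer cell lines were pin-tool dosed in 1536-well plates on the day after seeding, with either a lone drug or a fixed anchor-drug dose plus five library-drug doses (not always all listed) in √10 steps. Nuclei were counted on 4× images after 5 days. Relative viability is the ratio of treated-well to vehicle-well nuclei counts, with each value a median of duplicate plates.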

[2] = tested on: NCI-H1648
In short: as §1

[3] = tested on: NCI-H1395
In short: as §1

[4] = tested on: EKVX
In short: as §1

[5] = tested on: NCI-H1755
In short: as §1

[6] = tested on: LCLC-103H
In short: as §1

[7] = tested on: NCI-H1703
In short: as §1

[8] = tested on: HCC-15
In short: as §1

[9] = tested on: IA-LM
In short: as §1

[10] = tested on: UMC-11
In short: as §1

Which results are given for `Nc1ccn([C@@H]2O[C@H](CO)[C@@H](O)[C@@H]2O)c(=O)n1` [Cytarabine] + NC(=O)Nc1cc(-c2cccc(F)c2)sc1C(=O)N[C@H]1CCCNC1 [AZD7762] (partner 0.2 µM)?
relative viability ([1]; first compound 0.005 µM): 1.07; relative viability ([1]; first compound 0.01581 µM): 0.916; relative viability ([1]; first compound 0.05 µM): 0.476; relative viability ([1]; first compound 0.1581 µM): 0.332; relative viability ([1]; first compound 0.5 µM): 0.249; relative viability ([2]; first compound 0.005 µM): 0.647; relative viability ([2]; first compound 0.01581 µM): 0.882; relative viability ([2]; first compound 0.05 µM): 0.73; relative viability ([2]; first compound 0.1581 µM): 0.527; relative viability ([2]; first compound 0.5 µM): 0.401; relative viability ([3]; first compound 0.005 µM): 0.383; relative viability ([3]; first compound 0.01581 µM): 0.39; relative viability ([3]; first compound 0.05 µM): 0.331; relative viability ([3]; first compound 0.1581 µM): 0.364; relative viability ([3]; first compound 0.5 µM): 0.351; relative viability ([4]; first compound 0.005 µM): 0.697; relative viability ([4]; first compound 0.01581 µM): 0.676; relative viability ([4]; first compound 0.05 µM): 0.329; relative viability ([4]; first compound 0.5 µM): 0.67; relative viability ([5]; first compound 0.005 µM): 0.501; relative viability ([5]; first compound 0.01581 µM): 0.314; relative viability ([5]; first compound 0.05 µM): 0.334; relative viability ([5]; first compound 0.1581 µM): 0.372; relative viability ([5]; first compound 0.5 µM): 0.298; relative viability ([6]; first compound 0.005 µM): 0.763; relative viability ([6]; first compound 0.01581 µM): 0.704; relative viability ([6]; first compound 0.05 µM): 0.751; relative viability ([6]; first compound 0.1581 µM): 0.469; relative viability ([6]; first compound 0.5 µM): 0.369; relative viability ([7]; first compound 0.005 µM): 0.108; relative viability ([7]; first compound 0.01581 µM): 0.121; relative viability ([7]; first compound 0.05 µM): 0.103; relative viability ([7]; first compound 0.1581 µM): 0.124; relative viability ([7]; first compound 0.5 µM): 0.13; relative viability ([8]; first compound 0.005 µM): 1.11; relative viability ([8]; first compound 0.01581 µM): 1.52; relative viability ([8]; first compound 0.05 µM): 1.45; relative viability ([8]; first compound 0.1581 µM): 1.06; relative viability ([8]; first compound 0.5 µM): 0.913

`Nc1ccn([C@@H]2O[C@H](CO)[C@@H](O)[C@@H]2O)c(=O)n1` [Cytarabine] + O=C(CCCCCCC(=O)Nc1ccccc1)NO [Vorinostat] (partner 1 µM) was tested. Which relative viability ([1]; first compound 0.005 µM) did it give?
Its relative viability is 1.2.

What about the relative viability ([1]; first compound 0.01581 µM) of the same molecule?
The relative viability was 1.09.

And the relative viability ([1]; first compound 0.05 µM)?
Its relative viability is 1.08.

And the relative viability ([1]; first compound 0.1581 µM)?
Its relative viability is 0.973.

And the relative viability ([1]; first compound 0.5 µM)?
The relative viability was 0.948.

What about the relative viability ([2]; first compound 0.005 µM) of the same molecule?
The relative viability was 0.4.

What about the relative viability ([2]; first compound 0.01581 µM) of the same molecule?
The relative viability was 0.354.

And the relative viability ([2]; first compound 0.05 µM)?
Its relative viability is 0.556.

What about the relative viability ([2]; first compound 0.1581 µM) of the same molecule?
The relative viability was 0.408.

And the relative viability ([2]; first compound 0.5 µM)?
Its relative viability is 0.357.

What about the relative viability ([3]; first compound 0.005 µM) of the same molecule?
Its relative viability is 0.692.

What about the relative viability ([3]; first compound 0.01581 µM) of the same molecule?
Its relative viability is 0.586.

What about the relative viability ([3]; first compound 0.05 µM) of the same molecule?
Its relative viability is 0.5.

What about the relative viability ([3]; first compound 0.1581 µM) of the same molecule?
The relative viability was 0.357.

What about the relative viability ([3]; first compound 0.5 µM) of the same molecule?
The relative viability was 0.349.

What about the relative viability ([9]; first compound 0.005 µM) of the same molecule?
The relative viability was 0.868.

And the relative viability ([9]; first compound 0.01581 µM)?
Its relative viability is 1.03.

What about the relative viability ([9]; first compound 0.05 µM) of the same molecule?
Its relative viability is 1.07.

What about the relative viability ([9]; first compound 0.1581 µM) of the same molecule?
The relative viability was 0.518.

And the relative viability ([9]; first compound 0.5 µM)?
Its relative viability is 0.578.

What about the relative viability ([4]; first compound 0.005 µM) of the same molecule?
Its relative viability is 0.706.

And the relative viability ([4]; first compound 0.01581 µM)?
The relative viability was 0.7.

What about the relative viability ([4]; first compound 0.05 µM) of the same molecule?
Its relative viability is 0.636.

What about the relative viability ([4]; first compound 0.1581 µM) of the same molecule?
The relative viability was 0.494.

And the relative viability ([4]; first compound 0.5 µM)?
The relative viability was 0.414.

What about the relative viability ([5]; first compound 0.005 µM) of the same molecule?
The relative viability was 0.823.

What about the relative viability ([5]; first compound 0.01581 µM) of the same molecule?
The relative viability was 0.794.

What about the relative viability ([5]; first compound 0.05 µM) of the same molecule?
The relative viability was 0.685.

And the relative viability ([5]; first compound 0.1581 µM)?
Its relative viability is 0.502.

And the relative viability ([5]; first compound 0.5 µM)?
Its relative viability is 0.375.

What about the relative viability ([6]; first compound 0.005 µM) of the same molecule?
Its relative viability is 0.806.

And the relative viability ([6]; first compound 0.01581 µM)?
The relative viability was 0.861.

And the relative viability ([6]; first compound 0.05 µM)?
The relative viability was 0.758.

What about the relative viability ([6]; first compound 0.1581 µM) of the same molecule?
The relative viability was 0.745.

What about the relative viability ([6]; first compound 0.5 µM) of the same molecule?
Its relative viability is 0.692.

And the relative viability ([10]; first compound 0.005 µM)?
Its relative viability is 0.285.

What about the relative viability ([10]; first compound 0.01581 µM) of the same molecule?
Its relative viability is 0.308.

What about the relative viability ([10]; first compound 0.05 µM) of the same molecule?
Its relative viability is 0.258.

And the relative viability ([10]; first compound 0.1581 µM)?
Its relative viability is 0.19.

What about the relative viability ([10]; first compound 0.5 µM) of the same molecule?
Its relative viability is 0.183.

What about the relative viability ([8]; first compound 0.005 µM) of the same molecule?
The relative viability was 0.856.

What about the relative viability ([8]; first compound 0.01581 µM) of the same molecule?
The relative viability was 0.784.

And the relative viability ([8]; first compound 0.05 µM)?
The relative viability was 0.775.

What about the relative viability ([8]; first compound 0.1581 µM) of the same molecule?
Its relative viability is 0.676.

And the relative viability ([8]; first compound 0.5 µM)?
Its relative viability is 0.647.
